From ChEMBL document CHEMBL4229346, “New insights in the structure-activity relationships of 2-phenylamino-substituted benzothiopyrano[4,3-d]pyrimidines as kinase inhibitors” (Eur J Med Chem, 2018) come the findings set out here.

By GI50 is commonly meant the concentration that inhibits growth by half. Read a high GI50 as less potent growth inhibition. As a reminder, the pIC50 is −log10 of the IC50, conventionally taken in molar units. As a reminder, the inhibition is the change of the read-out against control, counted positive when it falls.

Molecules are shown by their SMILES. pIC50: −log10 of the molar value. Some results are limits rather than exact numbers.

Series [1] in a line: Growth inhibition of HUVEC after 72 hrs by trypan blue assay. The format is cell-based. As to conditions: human, HUVEC cells.
A further series deals with HeLa. As to the kind of experiment: Growth inhibition of human HeLa cells after 72 hrs by trypan blue assay. The format is functional.
For another series, the system named is A-431. As to the kind of experiment: Growth inhibition of human A431 cells after 72 hrs by trypan blue assay. The format is functional. As to conditions: A-431, 72 h.
The next series deals with MSTO-211H. Kind of series: Growth inhibition of human MSTO-211H cells after 72 hrs by trypan blue assay. The format is functional.
Series [2] deals with Vascular endothelial growth factor receptor 2 (Homo sapiens, UniProt P35968). As to the kind of experiment: Inhibition of recombinant human His-tagged KDR cytoplasmic domain (789 to 1356 residues) expressed in baculovirus expression system using Z'-LYTE-Tyr1 as substrate measured after 1 hr by Z'-LYTE assay.
Chain of Vascular endothelial growth factor receptor 2 (P35968 whole entry, the tested form may be a part): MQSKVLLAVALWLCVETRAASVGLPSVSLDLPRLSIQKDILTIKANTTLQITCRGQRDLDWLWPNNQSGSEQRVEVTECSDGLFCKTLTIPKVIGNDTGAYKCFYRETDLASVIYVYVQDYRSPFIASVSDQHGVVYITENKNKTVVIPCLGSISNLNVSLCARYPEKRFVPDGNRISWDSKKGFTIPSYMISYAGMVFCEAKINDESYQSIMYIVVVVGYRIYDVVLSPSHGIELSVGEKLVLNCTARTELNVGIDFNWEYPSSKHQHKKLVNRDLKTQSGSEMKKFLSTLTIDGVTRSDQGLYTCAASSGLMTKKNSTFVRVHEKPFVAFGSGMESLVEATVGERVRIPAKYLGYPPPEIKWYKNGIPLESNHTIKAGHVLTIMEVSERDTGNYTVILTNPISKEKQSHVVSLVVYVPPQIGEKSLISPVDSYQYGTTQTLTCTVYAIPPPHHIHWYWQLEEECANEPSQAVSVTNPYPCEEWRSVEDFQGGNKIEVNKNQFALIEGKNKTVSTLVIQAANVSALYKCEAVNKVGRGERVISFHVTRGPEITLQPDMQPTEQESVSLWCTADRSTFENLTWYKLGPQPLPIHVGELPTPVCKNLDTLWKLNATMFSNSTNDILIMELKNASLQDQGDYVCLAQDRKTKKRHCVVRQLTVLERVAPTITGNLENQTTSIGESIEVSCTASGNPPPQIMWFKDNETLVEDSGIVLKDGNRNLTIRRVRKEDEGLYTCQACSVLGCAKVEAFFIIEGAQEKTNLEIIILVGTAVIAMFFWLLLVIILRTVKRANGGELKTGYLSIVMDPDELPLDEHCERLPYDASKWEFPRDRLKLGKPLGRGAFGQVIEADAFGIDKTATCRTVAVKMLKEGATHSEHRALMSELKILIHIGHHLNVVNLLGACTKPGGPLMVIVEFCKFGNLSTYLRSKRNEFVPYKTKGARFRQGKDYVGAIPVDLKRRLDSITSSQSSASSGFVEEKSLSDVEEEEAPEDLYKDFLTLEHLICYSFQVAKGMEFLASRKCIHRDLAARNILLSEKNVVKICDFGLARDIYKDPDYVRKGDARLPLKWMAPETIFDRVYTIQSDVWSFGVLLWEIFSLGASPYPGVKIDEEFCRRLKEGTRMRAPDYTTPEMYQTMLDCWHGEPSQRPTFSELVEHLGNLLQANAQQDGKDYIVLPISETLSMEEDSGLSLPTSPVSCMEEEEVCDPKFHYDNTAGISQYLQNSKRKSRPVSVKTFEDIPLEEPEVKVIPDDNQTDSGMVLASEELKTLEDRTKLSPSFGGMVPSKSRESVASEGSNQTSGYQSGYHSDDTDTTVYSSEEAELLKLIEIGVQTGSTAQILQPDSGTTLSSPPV
For series [3], the target named is Proto-oncogene tyrosine-protein kinase Src (Homo sapiens) (UniProt P12931). As to the kind of experiment: Inhibition of recombinant human Src at 10^-5 M using Ulight-Poly GAT[EAY(1:1:1)]n as substrate measured after 10 mins by LANCE assay relative to control. On the technique in general: Time-resolved FRET reads energy transfer from a long-lived donor to a nearby acceptor.
Chain of Proto-oncogene tyrosine-protein kinase Src (Homo sapiens) (P12931 2-536 limits assumed): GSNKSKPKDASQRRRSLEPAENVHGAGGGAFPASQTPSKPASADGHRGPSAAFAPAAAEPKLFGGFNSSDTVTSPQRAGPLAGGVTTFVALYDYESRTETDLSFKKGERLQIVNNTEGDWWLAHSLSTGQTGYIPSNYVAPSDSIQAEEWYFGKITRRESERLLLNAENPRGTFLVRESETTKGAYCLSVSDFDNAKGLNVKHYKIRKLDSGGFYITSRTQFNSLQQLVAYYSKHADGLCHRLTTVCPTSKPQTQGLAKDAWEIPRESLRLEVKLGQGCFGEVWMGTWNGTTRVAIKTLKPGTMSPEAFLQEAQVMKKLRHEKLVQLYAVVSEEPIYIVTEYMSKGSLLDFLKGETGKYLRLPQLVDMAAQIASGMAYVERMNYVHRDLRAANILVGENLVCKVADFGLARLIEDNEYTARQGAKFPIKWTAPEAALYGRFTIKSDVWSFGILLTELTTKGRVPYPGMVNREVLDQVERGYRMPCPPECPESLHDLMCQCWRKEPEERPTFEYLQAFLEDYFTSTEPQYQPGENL

Series [4] addresses RAF proto-oncogene serine/threonine-protein kinase (Homo sapiens) (UniProt P04049). As to the kind of experiment: Inhibition of recombinant human RAF1 at 10^-5 M relative to control.
Series [5] addresses T1, Aurora kinase A (Homo sapiens) (UniProt O14965).
T1 sequence (whole entry): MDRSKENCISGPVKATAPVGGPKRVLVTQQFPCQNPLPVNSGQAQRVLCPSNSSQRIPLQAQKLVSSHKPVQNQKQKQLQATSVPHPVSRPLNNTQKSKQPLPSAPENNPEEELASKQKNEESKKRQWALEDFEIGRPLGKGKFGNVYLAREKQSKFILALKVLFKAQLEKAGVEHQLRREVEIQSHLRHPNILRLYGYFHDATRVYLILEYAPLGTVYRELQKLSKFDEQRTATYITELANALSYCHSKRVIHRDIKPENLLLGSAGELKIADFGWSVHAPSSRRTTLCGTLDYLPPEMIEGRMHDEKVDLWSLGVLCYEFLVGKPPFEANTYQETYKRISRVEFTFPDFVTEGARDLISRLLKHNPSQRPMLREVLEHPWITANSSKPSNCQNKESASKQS
As to the kind of experiment: Inhibition of recombinant human Aurora-A at 10^-5 M using Ulight-RRRSLLE as substrate measured after 15 mins by LANCE assay relative to control.

In series [6] the target is Cyclin-dependent kinase 1/cyclin B1 (Homo sapiens) (UniProt P06493+P14635). As to the kind of experiment: Inhibition of recombinant human CDK1/Cyclin B at 10^-5 M using Ulight-CFFKNIVTPRTPPPSQGK-amide as substrate measured after 15 mins by LANCE assay relative to control. The series is classed as protein-complex assay.
Chain of Cyclin-dependent kinase 1/cyclin B1 (Homo sapiens) (P06493 whole entry, looked up): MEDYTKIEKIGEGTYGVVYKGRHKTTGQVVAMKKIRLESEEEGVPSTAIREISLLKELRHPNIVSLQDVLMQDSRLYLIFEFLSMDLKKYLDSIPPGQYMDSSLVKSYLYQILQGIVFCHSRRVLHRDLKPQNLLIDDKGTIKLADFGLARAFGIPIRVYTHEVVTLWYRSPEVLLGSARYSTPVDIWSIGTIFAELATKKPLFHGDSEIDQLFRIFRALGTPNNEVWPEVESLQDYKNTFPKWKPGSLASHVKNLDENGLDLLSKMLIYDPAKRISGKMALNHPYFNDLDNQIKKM
Chain of Cyclin-dependent kinase 1/cyclin B1 (Homo sapiens) (P14635 whole entry, looked up): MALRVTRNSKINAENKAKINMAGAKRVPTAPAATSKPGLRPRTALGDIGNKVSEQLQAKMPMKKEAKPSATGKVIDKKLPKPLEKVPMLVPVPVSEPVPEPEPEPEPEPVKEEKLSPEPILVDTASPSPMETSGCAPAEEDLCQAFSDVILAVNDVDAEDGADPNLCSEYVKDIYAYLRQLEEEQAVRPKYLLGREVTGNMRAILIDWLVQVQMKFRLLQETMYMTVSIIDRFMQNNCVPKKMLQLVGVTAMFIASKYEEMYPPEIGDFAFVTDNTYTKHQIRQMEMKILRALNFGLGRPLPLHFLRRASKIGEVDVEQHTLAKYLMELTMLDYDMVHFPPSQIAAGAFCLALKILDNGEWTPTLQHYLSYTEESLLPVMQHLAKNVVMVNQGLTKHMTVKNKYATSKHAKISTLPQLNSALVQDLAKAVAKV
The target of series [7] is Epidermal growth factor receptor (Homo sapiens) (UniProt P00533). Kind of series: Inhibition of recombinant human EGFR at 10^-5 M using Ulight-CAGAGAIETDKEYYTVKD as substrate measured after 15 mins by LANCE assay relative to control.
Chain of Epidermal growth factor receptor (Homo sapiens) (P00533 whole entry): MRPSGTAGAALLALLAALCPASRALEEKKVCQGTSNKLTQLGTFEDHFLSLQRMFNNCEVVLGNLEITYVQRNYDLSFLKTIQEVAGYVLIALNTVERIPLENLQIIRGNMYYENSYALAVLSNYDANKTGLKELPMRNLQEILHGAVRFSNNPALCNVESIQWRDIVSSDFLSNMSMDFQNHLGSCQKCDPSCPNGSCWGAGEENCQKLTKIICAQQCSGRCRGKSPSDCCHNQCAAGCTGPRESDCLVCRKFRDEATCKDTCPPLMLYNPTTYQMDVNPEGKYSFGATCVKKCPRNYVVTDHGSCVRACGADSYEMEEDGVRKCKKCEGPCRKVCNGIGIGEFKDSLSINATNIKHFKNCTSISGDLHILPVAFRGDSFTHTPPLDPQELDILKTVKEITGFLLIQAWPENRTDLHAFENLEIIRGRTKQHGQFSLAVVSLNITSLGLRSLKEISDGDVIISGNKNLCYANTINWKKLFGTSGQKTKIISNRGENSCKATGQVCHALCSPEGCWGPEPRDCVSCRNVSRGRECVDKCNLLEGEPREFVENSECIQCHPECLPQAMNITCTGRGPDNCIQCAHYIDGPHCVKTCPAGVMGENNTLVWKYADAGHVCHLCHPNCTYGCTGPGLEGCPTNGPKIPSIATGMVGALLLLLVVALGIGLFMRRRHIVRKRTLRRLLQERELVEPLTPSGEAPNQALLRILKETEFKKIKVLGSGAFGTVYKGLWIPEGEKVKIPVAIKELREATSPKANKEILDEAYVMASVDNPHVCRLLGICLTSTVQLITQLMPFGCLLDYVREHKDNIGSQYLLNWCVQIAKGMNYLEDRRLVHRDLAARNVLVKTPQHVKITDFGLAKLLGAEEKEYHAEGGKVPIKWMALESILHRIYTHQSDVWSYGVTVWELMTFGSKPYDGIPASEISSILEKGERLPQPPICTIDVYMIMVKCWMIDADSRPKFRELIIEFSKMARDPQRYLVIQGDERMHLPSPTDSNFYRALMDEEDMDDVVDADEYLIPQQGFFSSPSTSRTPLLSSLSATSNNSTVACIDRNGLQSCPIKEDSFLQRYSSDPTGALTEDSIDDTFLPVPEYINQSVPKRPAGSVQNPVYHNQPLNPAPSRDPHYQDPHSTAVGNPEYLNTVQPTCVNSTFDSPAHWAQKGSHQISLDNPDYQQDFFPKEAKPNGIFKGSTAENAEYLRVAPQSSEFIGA
The target of series [8] is Platelet-derived growth factor receptor beta (Homo sapiens) (UniProt P09619). Kind of series: Inhibition of recombinant human PDGFRbeta at 10^-5 M using Ulight-Poly GAT[EAY(1:1:1)]n as substrate measured after 30 mins by LANCE assay relative to control.

Chain of RAF proto-oncogene serine/threonine-protein kinase (Homo sapiens) (P04049 whole entry): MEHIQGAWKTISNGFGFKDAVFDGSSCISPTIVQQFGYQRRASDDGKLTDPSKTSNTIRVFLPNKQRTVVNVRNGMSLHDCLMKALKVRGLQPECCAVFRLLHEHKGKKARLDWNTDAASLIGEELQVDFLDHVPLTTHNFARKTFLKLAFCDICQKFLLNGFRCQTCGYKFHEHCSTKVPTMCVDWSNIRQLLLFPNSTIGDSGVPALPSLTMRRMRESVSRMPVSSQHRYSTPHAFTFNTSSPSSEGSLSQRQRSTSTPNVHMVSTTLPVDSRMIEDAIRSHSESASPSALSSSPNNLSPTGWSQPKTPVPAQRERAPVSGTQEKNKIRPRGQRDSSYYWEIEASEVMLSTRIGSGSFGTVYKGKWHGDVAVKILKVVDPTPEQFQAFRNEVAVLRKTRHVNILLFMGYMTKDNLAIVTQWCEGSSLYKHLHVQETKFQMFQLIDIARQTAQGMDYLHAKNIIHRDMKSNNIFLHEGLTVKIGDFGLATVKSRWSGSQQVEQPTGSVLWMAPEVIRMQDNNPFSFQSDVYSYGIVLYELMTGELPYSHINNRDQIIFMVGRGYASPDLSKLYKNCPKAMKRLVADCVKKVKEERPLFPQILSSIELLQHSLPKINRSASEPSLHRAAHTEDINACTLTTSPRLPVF

`Clc1cccc(Nc2ncc3c(n2)-c2ccc(Cl)cc2SC3)c1`: the GI50 at 72 h in [1] came to 16.5 µM. Besides, the 50% growth inhibitory concentration (GI50) with HeLa is above 20 µM; in the series on A-431, above 20 µM; in the series with MSTO-211H, 7.78 µM.
Turning to `COc1ccc2c(c1)SCc1cnc(Nc3cccc(F)c3)nc1-2`, in series [1], the 50% growth inhibitory concentration (GI50) at 72 h amounted to 11.5 µM. For the same molecule, the figures for the 50% growth inhibitory concentration (GI50) in the series on HeLa, in the series on A-431 and in the series on MSTO-211H were 10.3 µM, 15.5 µM and 13 µM, respectively.
In turn, `COc1cccc(Nc2ncc3c(n2)-c2ccc(Cl)cc2SC3)c1` gave a GI50 at 72 h in series [1] of 14.2 µM. The 50% growth inhibitory concentration (GI50) in the series on HeLa was above 20 µM; in the series with A-431, 16.8 µM; in the series on MSTO-211H, 6.83 µM.
Take `COc1ccc(Nc2ncc3c(n2)-c2ccc(Cl)cc2SC3)cc1OC`: the GI50 at 72 h in [1] stood at 2.53 µM. In addition, the figures for the GI50 in the series with HeLa, in the series on A-431 and in the series with MSTO-211H were 3.42 µM, 2.23 µM and 4.4 µM, respectively.
The matching figures for `FC(F)(F)c1cccc(Nc2ncc3c(n2)-c2ccccc2SC3)c1`: 5.02 µM, above 20 µM, 13.5 µM and 11.8 µM.
Regarding `COc1ccc2c(c1)SCc1cnc(Nc3cccc(Cl)c3)nc1-2`, in series [1], the 50% growth inhibitory concentration (GI50) at 72 h was 11.2 µM. Further, the GI50 came out at 11.9 µM in the series on HeLa, 8.25 µM in the series with A-431 and 5.6 µM with MSTO-211H.
The like results for `COc1cccc(Nc2ncc3c(n2)-c2ccc(OC)cc2SC3)c1` were, in that order, 2.49 µM, 2.8 µM, 2.1 µM and 2.57 µM.
The like results for `Clc1cccc(Nc2ncc3c(n2)-c2ccccc2SC3)c1` were, in that order, 7.13 µM, above 20 µM, 10.4 µM and 6.1 µM.
The like results for `Fc1cccc(Nc2ncc3c(n2)-c2ccccc2SC3)c1` were, in that order, 4.51 µM, 14 µM, 9.76 µM and 2.06 µM.
As to `COc1ccc(Nc2ncc3c(n2)-c2ccccc2SC3)cc1OC`, the pIC50 in series [2] was 6.96. In series [1], the GI50 at 72 h is 1.5 µM. The concentration for 50% growth inhibition (GI50) with HeLa was 1.5 µM; with A-431, 2.32 µM; with MSTO-211H, 1.63 µM. Also, the inhibition stood at 53% in [3]; 6.1% in series [4]; 88.6% in series [5]; 47.4% in [6]; 6.5% in [7]; 39.9% in [8].
In series [1], `FC(F)(F)c1cccc(Nc2ncc3c(n2)-c2ccc(Cl)cc2SC3)c1` registered a GI50 at 72 h of 10.5 µM. Further, the GI50 in the series with HeLa was above 20 µM; with A-431, 10 µM; with MSTO-211H it was 3.18 µM.
With `COc1cccc(Nc2ncc3c(n2)-c2ccccc2SC3)c1`, halving of growth in [1] (GI50 at 72 h) required 0.8 µM. Moreover, the GI50 with HeLa came to 6.03 µM; in the series with A-431, 9.43 µM; in the series on MSTO-211H, 0.8 µM.
`Fc1cccc(Nc2ncc3c(n2)-c2ccc(Cl)cc2SC3)c1` gave a 50% growth inhibitory concentration (GI50) at 72 h in [1] of 18.2 µM. In addition, the 50% growth inhibitory concentration (GI50) with HeLa is 20 µM; with A-431 it was 18.2 µM; in the series with MSTO-211H, above 20 µM.
On to `COc1ccc2c(c1)SCc1cnc(Nc3ccc(OC)c(OC)c3)nc1-2`, for which, in series [1], growth was halved (GI50 at 72 h) at 10.8 µM. Further, the figures for the 50% growth inhibitory concentration (GI50) in the series with HeLa, in the series on A-431 and in the series with MSTO-211H were 18.8 µM, 6.06 µM and above 20 µM, respectively.
As for `COc1cc(Nc2ncc3c(n2)-c2ccccc2SC3)cc(OC)c1OC`, the GI50 at 72 h in series [1] came to 1.99 µM. In addition, the GI50 with HeLa was 1.26 µM; with A-431 it was 1.92 µM; in the series with MSTO-211H it was 1.08 µM.
Regarding `Cc1cc(C)c(/C=C2\C(=O)Nc3ccccc32)[nH]1` [SEMAXANIB], the GI50 was 38 µM with HeLa, 37 µM in the series with A-431 and 27 µM with MSTO-211H.
Molecule `COc1cc(Nc2ncc3c(n2)-c2ccc(Cl)cc2SC3)cc(OC)c1OC` came in with a GI50 at 72 h in [1] of 2.54 µM. Moreover, the results for the GI50 with HeLa, with A-431 and in the series with MSTO-211H were 3.46 µM, 4.27 µM and 3.4 µM, respectively.
For `Clc1ccc2c(c1)SCc1cnc(Nc3cccc(Br)c3)nc1-2`, the concentration for 50% growth inhibition (GI50) at 72 h in [1] was found to be 7.11 µM. In addition, the GI50 in the series on HeLa is above 20 µM; in the series with A-431 it was 17 µM; with MSTO-211H, 8.5 µM.
As for `COc1ccc2c(c1)SCc1cnc(Nc3cccc(C(F)(F)F)c3)nc1-2`, growth in series [1] was halved (GI50 at 72 h) at 4.55 µM. For the same molecule, the 50% growth inhibitory concentration (GI50) with HeLa was determined as 6.02 µM; in the series on A-431, 6.24 µM; with MSTO-211H it was 9.04 µM.
The like results for `COc1ccc2c(c1)SCc1cnc(Nc3cc(OC)c(OC)c(OC)c3)nc1-2` were, in that order, 3.71 µM, 0.63 µM, 1.75 µM and 0.92 µM.
For the molecule `COc1ccc2c(c1)SCc1cnc(Nc3cccc(Br)c3)nc1-2`, in series [1], the 50% growth inhibitory concentration (GI50) at 72 h was 1.89 µM. Moreover, the concentration for 50% growth inhibition (GI50) in the series on HeLa is 2.93 µM; with A-431 it was 4.77 µM; with MSTO-211H, 2.2 µM.
In series [1], `Brc1cccc(Nc2ncc3c(n2)-c2ccccc2SC3)c1` showed a GI50 at 72 h of 7 µM. For the same molecule, the figures for the GI50 with HeLa, in the series with A-431 and in the series with MSTO-211H were above 20 µM, 10.6 µM and 7.67 µM, respectively.
